# Data published in US20140274688A1, “MOLECULES HAVING CERTAIN PESTICIDAL UTILITIES, AND INTERMEDIATES, COMPOSITIONS, AND PROCESSES RELATED THERETO” (DOW AGROSCIENCES LLC, priority 2013, published 2014).
# Where two headings read alike, the source gives them in different places.
# What was measured:
# [1] = tested on: Cabbage Looper (Trichoplusia ni) ("CL"); assay: Bioassay on Cabbage Looper (CL), 128-well diet tray assay, percent mortality; format: in vivo; conditions: for CL rating (percent mortality class): Cabbage Looper, 128-well diet tray assay; for pest or weed control at 50 µg/cm2: Trichoplusia ni, read-out: CL
# Outline: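 Larvae held in covered diet trays at 25 °C, 14:10 light-dark, for five to seven days. Percent mortality scored per well and averaged over eight wells.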
# [2] = tested on: Beet Armyworm (Spodoptera exigua) ("BAW"); assay: Bioassay on Beet Armyworm (BAW), 128-well diet tray assay, percent mortality; format: in vivo; conditions: for BAW rating (percent mortality class): Beet Armyworm, 128-well diet tray assay; for pest or weed control at 50 µg/cm2: Spodoptera exigua, read-out: BAW
# Outline: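 Larvae in covered diet trays held at 25 °C, 14:10 light-dark, for five to seven days. Percent mortality scored per well and averaged over eight wells per treatment.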
# [3] = tested on: Yellow Fever Mosquito "YFM" (Aedes aegypti); conditions: for YFM rating (mortality class): Yellow Fever Mosquito larvae, 96-well plates; for YFM: rating of mortality, Yellow Fever Mosquito
SMILES,pest or weed control at 50 µg/cm2 [1] [%],pest or weed control at 50 µg/cm2 [2] [%],also measured
"Cc1ccc(C(C)C)c(N2C(=O)CS/C2=N\C(=O)NCCc2ccc(-c3ncn(-c4ccc(OC(F)(F)C(F)(F)F)cc4)n3)cc2)c1 [F9, (Z)-1-(3-(2-isopropyl-5-methylphenyl)-4-oxothiazolidin-2-ylidene)-3-(4-(1-(4-(perfluoroethoxy)phenyl)-1H-1,2,4-triazol-3-yl)phenethyl)urea]",,,CL rating (percent mortality class) [1]: A (50-100); BAW rating (percent mortality class) [2]: A (50-100); YFM rating (mortality class) [3]: A (80-100)
"CC(C)c1ccccc1NC(=S)NC(=O)NCc1ccc(-c2ncn(-c3ccc(OC(F)(F)F)cc3)n2)cc1 [F14, N-[2-(propan-2-yl)phenyl]-N′-(4-{1-[4-(trifluoromethoxy)phenyl]-1H-1,2,4-triazol-3-yl}benzyl)dicarbonimidothioic diamide]",,,CL rating (percent mortality class) [1]: A (50-100); BAW rating (percent mortality class) [2]: A (50-100); YFM rating (mortality class) [3]: A (80-100)
"Cc1ccc(C(C)C)c(N2C(=O)CS/C2=N\C(=O)NCCCc2ccc(-c3ncn(-c4ccc(OC(F)(F)F)cc4)n3)cc2)c1 [F20, (Z)-1-(3-(2-isopropyl-5-methylphenyl)-4-oxothiazolidin-2-ylidene)-3-(3-(4-(1-(4-(trifluoromethoxy)phenyl)-1H-1,2,4-triazol-3-yl)phenyl)propyl)urea]",,,CL rating (percent mortality class) [1]: A (50-100); BAW rating (percent mortality class) [2]: A (50-100); YFM rating (mortality class) [3]: A (80-100)
"Cc1ccc(C(C)C)c(NC(=S)NC(=O)NCCCc2ccc(-c3ncn(-c4ccc(OC(F)(F)F)cc4)n3)cc2)c1 [F21, 1-[(2-isopropyl-5-methyl-phenyl)carbamothioyl]-3-[3-[4-[1-[4-(trifluoromethoxy)phenyl]-1,2,4-triazol-3-yl]phenyl]propyl]urea]",,,CL rating (percent mortality class) [1]: A (50-100); BAW rating (percent mortality class) [2]: A (50-100); YFM rating (mortality class) [3]: A (80-100)
"CC(C)c1ccccc1N1C(=O)CS/C1=N\C(=O)NC1CC1c1ccc(-c2ncn(-c3ccc(OC(F)(F)F)cc3)n2)cc1 (stereo not drawn) [F29, (Z)-1-(3-(2-isopropylphenyl)-4-oxothiazolidin-2-ylidene)-3-(2-(4-(1-(4-(trifluoromethoxy)phenyl)-1H-1,2,4-triazol-3-yl)phenyl)cyclopropyl)urea]",,,CL rating (percent mortality class) [1]: A (50-100); BAW rating (percent mortality class) [2]: A (50-100); YFM rating (mortality class) [3]: A (80-100)
"COc1ccc(N2C(=O)CS/C2=N\C(=O)NCCCc2cccc(-c3ncn(-c4ccc(OC(F)(F)F)cc4)n3)c2)c(C)c1 [P131, (Z)-1-(3-(4-methoxy-2-methylphenyl)-4-oxothiazolidin-2-ylidene)-3-(3-(3-(1-(4-(trifluoromethoxy)phenyl)-1H-1,2,4-triazol-3-yl)phenyl)propyl)urea]",50 to 100,50 to 100,
"CCc1ccccc1N1C(=O)CS/C1=N\C(=O)NCCCCc1ccc(-c2ncn(-c3ccc(OC(F)(F)F)cc3)n2)cc1 [P145, (Z)-1-(3-(2-ethylphenyl)-4-oxothiazolidin-2-ylidene)-3-(4-(4-(1-(4-(trifluoromethoxy)phenyl)-1H-1,2,4-triazol-3-yl)phenyl)butyl)urea]",50 to 100,50 to 100,
"CC(C)c1ccccc1N1C(=O)CS/C1=N\C(=O)NCCCCc1ccc(-c2ncn(-c3ccc(OC(F)(F)F)cc3)n2)cc1 [P146, (Z)-1-(3-(2-isopropylphenyl)-4-oxothiazolidin-2-ylidene)-3-(4-(4-(1-(4-(trifluoromethoxy)phenyl)-1H-1,2,4-triazol-3-yl)phenyl)butyl)urea]",50 to 100,50 to 100,
"Cc1ccc(C(C)C)c(N2C(=O)CS/C2=N\C(=O)NCCCCc2ccc(-c3ncn(-c4ccc(OC(F)(F)F)cc4)n3)cc2)c1 [P150, (Z)-1-(3-(2-isopropyl-5-methylphenyl)-4-oxothiazolidin-2-ylidene)-3-(4-(4-(1-(4-(trifluoromethoxy)phenyl)-1H-1,2,4-triazol-3-yl)phenyl)butyl)urea]",50 to 100,50 to 100,
"CCCc1ccc(C)cc1N1C(=O)CS/C1=N\C(=O)NCCCCc1ccc(-c2ncn(-c3ccc(OC(F)(F)F)cc3)n2)cc1 [P151, (Z)-1-(3-(5-methyl-2-propylphenyl)-4-oxothiazolidin-2-ylidene)-3-(4-(4-(1-(4-(trifluoromethoxy)phenyl)-1H-1,2,4-triazol-3-yl)phenyl)butyl)urea]",50 to 100,50 to 100,
"CC(C)c1cc(F)ccc1N1C(=O)CS/C1=N\C(=O)NCCCCc1ccc(-c2ncn(-c3ccc(OC(F)(F)F)cc3)n2)cc1 [P155, (Z)-1-(3-(4-fluoro-2-isopropylphenyl)-4-oxothiazolidin-2-ylidene)-3-(4-(4-(1-(4-(trifluoromethoxy)phenyl)-1H-1,2,4-triazol-3-yl)phenyl)butyl)urea]",50 to 100,50 to 100,
"COc1ccc(C(C)C)c(N2C(=O)CS/C2=N\C(=O)NCCCCc2ccc(-c3ncn(-c4ccc(OC(F)(F)F)cc4)n3)cc2)c1 [P156, (Z)-1-(3-(2-isopropyl-5-methoxyphenyl)-4-oxothiazolidin-2-ylidene)-3-(4-(4-(1-(4-(trifluoromethoxy)phenyl)-1H-1,2,4-triazol-3-yl)phenyl)butyl)urea]",50 to 100,50 to 100,
"CCc1ccccc1N1C(=O)CS/C1=N\C(=O)NCCCCc1cccc(-c2ncn(-c3ccc(OC(F)(F)F)cc3)n2)c1 [P171, (Z)-1-(3-(2-ethylphenyl)-4-oxothiazolidin-2-ylidene)-3-(4-(3-(1-(4-(trifluoromethoxy)phenyl)-1H-1,2,4-triazol-3-yl)phenyl)butyl)urea]",50 to 100,50 to 100,
"CC(C)c1ccccc1N1C(=O)CS/C1=N\C(=O)NCCCCc1cccc(-c2ncn(-c3ccc(OC(F)(F)F)cc3)n2)c1 [P172, (Z)-1-(3-(2-isopropylphenyl)-4-oxothiazolidin-2-ylidene)-3-(4-(3-(1-(4-(trifluoromethoxy)phenyl)-1H-1,2,4-triazol-3-yl)phenyl)butyl)urea]",50 to 100,50 to 100,
"Cc1ccc(C(C)C)c(N2C(=O)CS/C2=N\C(=O)NCCCCc2cccc(-c3ncn(-c4ccc(OC(F)(F)F)cc4)n3)c2)c1 [P176, (Z)-1-(3-(2-isopropyl-5-methylphenyl)-4-oxothiazolidin-2-ylidene)-3-(4-(3-(1-(4-(trifluoromethoxy)phenyl)-1H-1,2,4-triazol-3-yl)phenyl)butyl)urea]",50 to 100,50 to 100,
"CC(C)c1cc(F)ccc1N1C(=O)CS/C1=N\C(=O)NCCCCc1cccc(-c2ncn(-c3ccc(OC(F)(F)F)cc3)n2)c1 [P181, (Z)-1-(3-(4-fluoro-2-isopropylphenyl)-4-oxothiazolidin-2-ylidene)-3-(4-(3-(1-(4-(trifluoromethoxy)phenyl)-1H-1,2,4-triazol-3-yl)phenyl)butyl)urea]",50 to 100,50 to 100,
"COc1ccc(C(C)C)c(N2C(=O)CS/C2=N\C(=O)NCCCCc2cccc(-c3ncn(-c4ccc(OC(F)(F)F)cc4)n3)c2)c1 [P182, (Z)-1-(3-(2-isopropyl-5-methoxyphenyl)-4-oxothiazolidin-2-ylidene)-3-(4-(3-(1-(4-(trifluoromethoxy)phenyl)-1H-1,2,4-triazol-3-yl)phenyl)butyl)urea]",50 to 100,50 to 100,
"CCC(CNC(=O)/N=C1\SCC(=O)N1c1ccccc1C(C)C)c1ccc(-c2ncn(-c3ccc(OC(F)(F)F)cc3)n2)cc1 (stereo not drawn) [P209, (Z)-1-(3-(2-isopropylphenyl)-4-oxothiazolidin-2-ylidene)-3-(2-(4-(1-(4-(trifluoromethoxy)phenyl)-1H-1,2,4-triazol-3-yl)phenyl)butyl)urea]",,50 to 100,YFM ([3]; Table ABC (P)): A (80-100)
"CCC(CNC(=O)/N=C1\SCC(=O)N1c1cc(C)ccc1C(C)C)c1ccc(-c2ncn(-c3ccc(OC(F)(F)F)cc3)n2)cc1 (stereo not drawn) [P364, (Z)-1-(3-(2-isopropyl-5-methylphenyl)-4-oxothiazolidin-2-ylidene)-3-(2-(4-(1-(4-(trifluoromethoxy)phenyl)-1H-1,2,4-triazol-3-yl)phenyl)butyl)urea]",50 to 100,50 to 100,
"CCC(CNC(=O)/N=C1\SCC(=O)N1c1cc(OC)ccc1C(C)C)c1ccc(-c2ncn(-c3ccc(OC(F)(F)F)cc3)n2)cc1 (stereo not drawn) [P683, (Z)-1-(3-(2-isopropyl-5-methoxyphenyl)-4-oxothiazolidin-2-ylidene)-3-(2-(4-(1-(4-(trifluoromethoxy)phenyl)-1H-1,2,4-triazol-3-yl)phenyl)butyl)urea]",,50 to 100,YFM ([3]; Table ABC (P)): A (80-100)
"CCCc1ccc(C)cc1NC(=S)NC(=O)NCCCCc1ccc(-c2ncn(-c3ccc(OC(F)(F)F)cc3)n2)cc1 [PC151, 1-[(5-methyl-2-propyl-phenyl)carbamothioyl]-3-[4-[4-[1-[4-(trifluoromethoxy)phenyl]-1,2,4-triazol-3-yl]phenyl]butyl]urea]",50 to 100,50 to 100,
"CCc1cccc(C)c1NC(=S)NC(=O)NCCCCc1ccc(-c2ncn(-c3ccc(OC(F)(F)F)cc3)n2)cc1 [PC153, 1-[(2-ethyl-6-methyl-phenyl)carbamothioyl]-3-[4-[4-[1-[4-(trifluoromethoxy)phenyl]-1,2,4-triazol-3-yl]phenyl]butyl]urea]",,,YFM ([3]; Table ABC (PC)): B (More than 0-Less than 80)
